The values below come from US7745423B2, “Calcium/sodium salt of inositol tripyrophosphate as an allosteric effector of hemoglobin” (NormOxys, Inc, priority 2004, dated 2010).

One experiment addresses murine free Hb (Mus musculus, UniProt P01942+P02088). Description: P50 of murine free Hb after incubation with compound (HEMOX analyzer). In kind it is biochemical. To be noted: for P50 (Torr) Hb + compound / P50 increase (%) + SD: murine free Hb, compound solution 60 mM. How it is done:
(§1) For the in vitro experiments, ITPP was dissolved in deionized water, pH was adjusted at pH 7 and, for incubation with whole blood, the osmolarity of the ITPP solutions was adjusted with glucose to 270-297 mOsM. Mixtures of hemoglobin and ITPP were measured with a HEMOX analyzer (PD Marketing, London) immediately after mixing. Red blood cells were incubated with ITPP for 1 hour at 37° C. Following incubation, the cells were washed 3 times with Bis-Tris-buffer (pH=7.0) and then used for P50 measurement.

The test system of the next experiment is murine whole blood. Nature of the experiment: P50 of murine whole blood after incubation with compound. In kind it is cell-based. On the procedure:
as §1

Experiment [1] has as its system VEGF mRNA in Lewis Lung carcinoma (LLC) tumors. Nature of the experiment: VEGF mRNA (RT-PCR) in Lewis Lung carcinoma tumors of ITPP drinking mice. To be noted: LLC tumor-bearing mice, ITPP 20 g/L orally, day 9, versus controls. It is filed as in vivo, C57BL/6 mice. How it is done:
ITPP, when administered orally, intravenously, or intraperitoneally, inhibits angiogenesis in growing tumors by enhancing the PO2 in the forming tumors. […] Thereafter, all animals received 1×10^6 Lewis Lung carcinoma (LLC) cells, injected in the dorsal cavity. At different time points, the VEGF mRNA were assayed by RT-PCR in the tumors growing in both groups of mice.
There was a difference in the level of mRNA of the VEGF gene in both groups. […] The RT-PCR agarose gel assay of VEGF mRNAs from tumor tissue taken from 2 mice each on day 15 after inoculation of LLC cells (track 1: controls, track 2: ITPP treated animals) and day 30 after inoculation (track 3: control animals, track 4: ITPP treated animals).
Quantification of the gel assays indicated a reduction by a factor of 10,000 of the amount of VEGF mRNAs detected in the tumors of animals having received ITPP, at day 9 and then, while differences remain between treated and untreated animals, they tend to decrease.

For a further experiment, the system named is circulating RBCs. Description: P50 of circulating RBCs after oral ITPP in drinking water. In kind it is in vivo. To be noted: drinking water 20 g/L (0.27 mM, pH ~7.0) ad libitum. On the procedure: ITPP was dissolved in drinking water at a 20 g/L-concentration (0.27 mM, pH ˜7.0.) and offered for drinking ad libitum.
The next experiment has as its system human whole blood. Nature of the experiment: P50 of human whole blood after incubation with compound. To be noted: for P50 (Torr) compound + whole blood / P50 increase (%) + SD: human whole blood. It is filed as cell-based. How it is done: as §1
(§2) ITPP-Ca4Na acts as a powerful effector of hemoglobin shifting the oxygen fixation curves to the right, with respect to the natural effector bisphosphoglycerate. […] In FIG. 6, hemoglobin is incubated (at concentrations up to 100 mM final) with ITPP Ca4Na, for 1 hour at 37° C. and measured by TCS-hemox analyzer for p50 shifts. In FIG. 7, whole human blood was incubated (at concentrations up to 120 mM final) with ITPP Ca4Na, for 1 hour 37° C. and measured by TCS-hemox analyzer for p50 shifts.

The target in experiment [2] is T1, hemoglobin (Homo sapiens, UniProt P68871+P69905). Description: p50 shift of hemoglobin incubated with ITPP Ca4Na (TCS-hemox analyzer). To be noted: up to 100 mM final, 1 hour at 37° C. It is filed as biochemical. How it is done:
as §2

The target in experiment [3] is T1, hemoglobin. To be noted: higher than DPG; cited from earlier work.
The subject of experiment [4] is hypoxic endothelial cells. Description: ITPP-Ca/Na loaded red blood cells on hypoxic endothelial cells in vitro. It is filed as cell-based.
For another experiment, the target named is human free Hb (Homo sapiens, UniProt P68871+P69905). Nature of the experiment: P50 of human free Hb after incubation with compound (HEMOX analyzer). It is filed as biochemical. To be noted: compound solution 60 mM. How it is done:
as §1

A further experiment deals with porcine free Hb (Sus scrofa, UniProt P01965+P02067). Nature of the experiment: P50 of porcine free Hb after incubation with compound (HEMOX analyzer). In kind it is biochemical. To be noted: compound solution 60 mM. On the procedure:
as §1

For the next experiment, the system named is porcine whole blood. Nature of the experiment: P50 of porcine whole blood after incubation with compound. To be noted: compound 60 mM. It is filed as cell-based. How it is done:
as §1

Where “and” joins values, the source holds several entries; their conditions need not be identical. Identical values can stand only once.

murine free Hb, sequence (P01942 2-142 limits assumed): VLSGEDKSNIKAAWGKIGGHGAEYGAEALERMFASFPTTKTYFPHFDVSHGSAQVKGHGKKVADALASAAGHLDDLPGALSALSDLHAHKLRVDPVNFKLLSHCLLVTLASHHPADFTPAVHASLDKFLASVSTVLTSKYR
murine free Hb, sequence (P02088 2-147 limits assumed): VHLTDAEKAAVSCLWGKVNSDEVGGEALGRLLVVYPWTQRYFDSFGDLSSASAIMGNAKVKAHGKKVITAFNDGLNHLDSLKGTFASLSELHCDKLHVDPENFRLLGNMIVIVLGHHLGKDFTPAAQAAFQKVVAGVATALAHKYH
human free Hb, sequence (P69905 2-142 limits assumed): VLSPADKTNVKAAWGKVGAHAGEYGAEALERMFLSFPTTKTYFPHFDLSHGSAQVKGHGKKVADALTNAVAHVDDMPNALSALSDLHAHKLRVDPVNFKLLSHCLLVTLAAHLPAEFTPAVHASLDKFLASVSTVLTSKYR
human free Hb, sequence (P68871 2-147 limits assumed): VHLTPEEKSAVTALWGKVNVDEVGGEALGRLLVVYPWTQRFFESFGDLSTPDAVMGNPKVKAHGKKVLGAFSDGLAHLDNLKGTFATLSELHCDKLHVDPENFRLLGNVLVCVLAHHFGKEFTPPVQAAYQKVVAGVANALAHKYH
T1 sequence (P69905 2-142 limits assumed): as the sequence (P69905 2-142 limits assumed) above
T1 sequence (P68871 2-147 limits assumed): as the sequence (P68871 2-147 limits assumed) above
porcine free Hb, sequence (P01965 whole entry): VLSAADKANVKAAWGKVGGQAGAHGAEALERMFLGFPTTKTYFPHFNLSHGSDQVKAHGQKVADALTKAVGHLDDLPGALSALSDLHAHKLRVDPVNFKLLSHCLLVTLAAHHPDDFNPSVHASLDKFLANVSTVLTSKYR
porcine free Hb, sequence (P02067 2-147 limits assumed): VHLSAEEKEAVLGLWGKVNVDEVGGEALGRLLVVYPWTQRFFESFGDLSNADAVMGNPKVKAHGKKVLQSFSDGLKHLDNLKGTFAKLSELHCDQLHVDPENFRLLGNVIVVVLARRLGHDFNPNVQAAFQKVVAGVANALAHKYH

Regarding `CN(C)C1CCCCC1.CN(C)C1CCCCC1.CN(C)C1CCCCC1.CN(C)C1CCCCC1.CN(C)C1CCCCC1.CN(C)C1CCCCC1.O=P1(O)OP(=O)(O)O[C@H]2[C@H](O1)[C@@H]1OP(=O)(O)OP(=O)(O)O[C@@H]1[C@H]1OP(=O)(O)OP(=O)(O)O[C@H]21` (racemic) [Compound 7, N,N-dimethylcyclohexyl ammonium salt of ITPP], at murine free Hb, the “P50 (Torr) Hb + compound” value turned out to be 45.1 Torr and the “P50 increase (%) + SD” value is 81 ± 15%. In the experiment with murine whole blood (compound 30 mM), the “P50 (Torr) compound + whole blood” value turned out to be 52.0 Torr and the “P50 increase (%) + SD” value came to 30 ± 3%.
As to `O=P1(O)OC2C3OP(=O)(O)OP(=O)(O)OC3C3OP(=O)(O)OP(=O)(O)OC3C2OP(=O)(O)O1` (stereo not drawn) [ITPP, inositol-tripyrophosphate], the “P50 shift to higher PO2” value is listed as “up to 250%” at murine free Hb (murine hemoglobin, maximum observed) and “up to 40%” in the experiment on murine whole blood (maximum observed). Also, in experiment [1], the “reduction factor of the amount of VEGF mRNAs detected in the tumors” value was 10,000. In addition, the “shift of the P50 value of circulating RBCs” value with circulating RBCs is given as “significant shift”.
In the case of `O=P1([O-])OC2C3OP(=O)([O-])OP(=O)([O-])OC3C3OP(=O)([O-])OP(=O)([O-])OC3C2OP(=O)([O-])O1.[Ca+2].[Na+].[Na+].[Na+].[Na+]` (stereo not drawn) [ITPP-Ca4Na, monocalcium tetrasodium myo-inositol 1,6:2,3:4,5 trispyrophosphate], the “p50 values of whole human blood (FIG. 7)” value with human whole blood (up to 120 mM final, 1 hour 37° C.) was “increase with concentration”. The “p50 values of hemoglobin (FIG. 6)” value at hemoglobin [2] is “increase with concentration”.
In the case of piperazinium salt of ITPP [Compound 13], at murine free Hb, the “P50 (Torr) Hb + compound” value was found to be 67.7 Torr and the “P50 increase (%) + SD” value is 189 ± 43%. Besides, in the experiment with murine whole blood (compound 30 mM), the “P50 (Torr) compound + whole blood” value is on record as 41.7 Torr and the “P50 increase (%) + SD” value is reported as 10 ± 2%.
Consider `O=P(O)(O)O[C@H]1[C@H](OP(=O)(O)O)[C@@H](OP(=O)(O)O)[C@H](OP(=O)(O)O)[C@@H](OP(=O)(O)O)[C@H]1OP(=O)(O)O` [IHP, inositol hexaphosphate], for which, at hemoglobin [3], the “affinity to hemoglobin relative to DPG” value was 1000 fold.
Regarding `C1CNCCN1.C1CNCCN1.C1CNCCN1.O=P1(O)OP(=O)(O)O[C@H]2[C@H](O1)[C@@H]1OP(=O)(O)OP(=O)(O)O[C@@H]1[C@H]1OP(=O)(O)OP(=O)(O)O[C@H]21` (racemic) [Compound 14, tripiperazinium salt of ITPP], on murine free Hb, the “P50 (Torr) Hb + compound” value is 82.9 Torr and the “P50 increase (%) + SD” value amounted to 254 ± 49%. Moreover, in the experiment on murine whole blood (compound 30 mM), the “P50 (Torr) compound + whole blood” value is 41.9 Torr and the “P50 increase (%) + SD” value was determined as 7 ± 1%.
Regarding `O=P1([O-])OP(=O)([O-])O[C@H]2[C@H](O1)[C@@H]1OP(=O)([O-])OP(=O)([O-])O[C@@H]1[C@H]1OP(=O)([O-])OP(=O)([O-])O[C@H]21.[Ca+2].[Na+].[Na+].[Na+].[Na+]` (racemic) [ITPP-Ca/Na, mixed calcium/sodium salt of inositol-tripyrophosphate], the “effect on HIF-1 induction, VEGF and angiogenesis (FIG. 1)” value in [4] is “suppression of HIF-1 induction, VEGF and angiogenesis”.
Regarding `O=P1(O)OP(=O)(O)O[C@H]2[C@H](O1)[C@@H]1OP(=O)(O)OP(=O)(O)O[C@@H]1[C@H]1OP(=O)(O)OP(=O)(O)O[C@H]21.c1ccncc1.c1ccncc1.c1ccncc1.c1ccncc1.c1ccncc1.c1ccncc1` (racemic) [Compound 4, pyridinium salt of ITPP], the “P50 (Torr) Hb + compound” value at human free Hb is 31.6 Torr; at murine free Hb, 50.0 Torr. For the same compound, the “P50 increase (%) + SD” value is recorded as 107 ± 22% at human free Hb, 100 ± 18% at murine free Hb, 10 ± 4% with human whole blood (compound 30 mM) and 13 ± 2% in the experiment on murine whole blood (compound 30 mM). Also, the “P50 (Torr) compound + whole blood” value in the experiment with human whole blood (compound 30 mM) was determined as 24.3 Torr; in the experiment on murine whole blood (compound 30 mM) it was 42.7 Torr.
On to `O=P1([O-])OP(=O)([O-])O[C@H]2[C@H](O1)[C@@H]1OP(=O)([O-])OP(=O)([O-])O[C@@H]1[C@H]1OP(=O)([O-])OP(=O)([O-])O[C@H]21.[Ca+2].[Ca+2].[Ca+2]` (racemic) [Compound 15, myo-inositol tripyrophosphate-calcium salt], for which the “P50 (Torr) Hb + compound” value turned out to be 33.1 Torr at human free Hb and 61.9 Torr at murine free Hb. The “P50 increase (%) + SD” value is 170% and 170 ± 32% on human free Hb; 130 ± 30% at murine free Hb; 25% and 25 ± 3% in the experiment with human whole blood (compound 30 mM); 8 ± 2% in the experiment with murine whole blood (compound 30 mM). In addition, the “P50 (Torr) compound + whole blood” value in the experiment with human whole blood (compound 30 mM) was 31.0 Torr; in the experiment with murine whole blood (compound 30 mM), 42.3 Torr; in the experiment on murine whole blood (compound 60 mM), 55.3 Torr.
On to `NC1CCCCCC1.NC1CCCCCC1.NC1CCCCCC1.NC1CCCCCC1.NC1CCCCCC1.NC1CCCCCC1.O=P1(O)OP(=O)(O)O[C@H]2[C@H](O1)[C@@H]1OP(=O)(O)OP(=O)(O)O[C@@H]1[C@H]1OP(=O)(O)OP(=O)(O)O[C@H]21` (racemic) [Compound 11, cycloheptyl ammonium salt of ITPP], for which, at murine free Hb, the “P50 (Torr) Hb + compound” value stood at 43.8 Torr and the “P50 increase (%) + SD” value came out at 71 ± 3%. In the experiment on murine whole blood (compound 30 mM), the “P50 (Torr) compound + whole blood” value came to 45.5 Torr and the “P50 increase (%) + SD” value was 20 ± 2%.
Regarding `O=P1([O-])OP(=O)([O-])O[C@H]2[C@H](O1)[C@@H]1OP(=O)([O-])OP(=O)([O-])O[C@@H]1[C@H]1OP(=O)([O-])OP(=O)([O-])O[C@H]21.[Na+].[Na+].[Na+].[Na+].[Na+].[Na+]` (racemic) [Compound 5, myo-inositol tripyrophosphate-sodium salt], the “P50 (Torr) Hb + compound” value was 49.8 Torr on human free Hb, 69.7 Torr on murine free Hb and 68.1 Torr at porcine free Hb. In addition, the “P50 increase (%) + SD” value at human free Hb is given as 225 ± 19%; on murine free Hb, 180 ± 25%; at porcine free Hb it was 209 ± 39%. For the same compound, the “P50 (Torr) compound + whole blood” value amounted to 30.8 Torr in the experiment with human whole blood (compound 60 mM), 47.4 Torr with murine whole blood (compound 4 mM) and 44.2 Torr in the experiment with porcine whole blood.
Consider `NC1CCCCCCC1.NC1CCCCCCC1.NC1CCCCCCC1.NC1CCCCCCC1.NC1CCCCCCC1.NC1CCCCCCC1.O=P1(O)OP(=O)(O)O[C@H]2[C@H](O1)[C@@H]1OP(=O)(O)OP(=O)(O)O[C@@H]1[C@H]1OP(=O)(O)OP(=O)(O)O[C@H]21` (racemic) [Compound 12, cyclooctyl ammonium salt of ITPP], for which, on murine free Hb, the “P50 (Torr) Hb + compound” value is on record as 30.6 Torr and the “P50 increase (%) + SD” value was determined as 23 ± 5%. Also, in the experiment with murine whole blood (compound 30 mM), the “P50 (Torr) compound + whole blood” value is reported as 41.3 Torr and the “P50 increase (%) + SD” value was found to be 9 ± 1%.
